Data published in paper PMC10641814 (Journal of Medicinal Chemistry, 2023).

Tests used:
[1] = target: T1, h5-HT6R (Homo sapiens, UniProt P50406); assay: 5-HT6R antagonist activity at Gs signaling, cAMP in 1321N1 cells (5-CT stimulated); type: cell-based; settings: 1321N1 cells expressing h5-HT6R; read-out: EC50 (agonist, cAMP production)
T1 construct: expressed in transfected cells

[2] = target: T1, h5-HT6R; assay: 5-HT6R radioligand binding ([3H]-LSD) in HEK293 cells stably expressing h5-HT6R; settings: 2 nM [3H]-LSD, mean of three independent experiments, read-out: Ki ± SEM [nM] 5-HT6R
[3] = target: T2, hMAO-B (Homo sapiens, UniProt P27338); assay: MAO-B inhibition, fluorometric method, p-tyramine substrate; type: biochemical; settings: two experiments in duplicate
T2 construct: purchased Sigma-Aldrich M7441
T2 sequence (P27338 1-520): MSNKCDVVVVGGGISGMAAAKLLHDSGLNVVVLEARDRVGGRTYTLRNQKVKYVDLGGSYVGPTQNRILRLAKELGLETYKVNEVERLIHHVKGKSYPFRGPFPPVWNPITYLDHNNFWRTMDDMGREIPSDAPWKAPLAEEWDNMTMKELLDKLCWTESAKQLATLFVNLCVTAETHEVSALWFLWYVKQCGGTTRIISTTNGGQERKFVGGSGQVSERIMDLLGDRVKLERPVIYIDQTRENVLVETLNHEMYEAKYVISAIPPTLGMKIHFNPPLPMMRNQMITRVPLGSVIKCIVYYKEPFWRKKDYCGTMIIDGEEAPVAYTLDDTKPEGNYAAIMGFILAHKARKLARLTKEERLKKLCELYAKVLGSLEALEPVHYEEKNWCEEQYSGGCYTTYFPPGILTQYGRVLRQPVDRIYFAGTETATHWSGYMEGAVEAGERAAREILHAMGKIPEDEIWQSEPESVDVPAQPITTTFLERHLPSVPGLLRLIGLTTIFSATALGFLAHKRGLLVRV

[4] = test system: hippocampus of rats injected with oAβ25–35; assay: Western blot of hippocampal AD biomarkers in oAβ25–35-injected rats; type: in vivo, rat; settings: oAβ25–35 icv
Protocol: As previously detailed,[37],[64] to induce the acute model of AD (oAβ25–35 model), rats were divided into three groups. […] The animals were anesthetized with an intraperitoneal (ip) injection of a mixture of ketamine and xylazine (80 and 10 mg/kg b.w., respectively). Scrambled peptide and oAβ25–35 were injected directly into the lateral ventricles at a rate of 2 μL/min using a David-Kopf stereotaxic apparatus (coordinates of injection: AP −1 mm, L ±1.5 mm, DV −3.5 mm).
On day 14, animals were subjected to a behavioral memory test (T-maze) and sacrificed on day 15 by decapitation.
(§1) 2—A preventive approach: This treatment was started at the same time as the induction of amyloid toxicity and consisted of implanting ip, and during the same anesthetic procedure necessary for the icv injection of oAβ25–35, an osmotic pump (Alzet-EML2, Charles-River, France) which continuously delivered the molecules for 1 week at the dose of 3 mg/kg/day. On day 7, animals were submitted to a behavioral memory test (T-maze) and sacrificed on day 8 by decapitation.
At the time of sacrifice, all hippocampi were dissected out, weighed, and rapidly frozen in liquid nitrogen for Western blot (WB) analysis.
Western blot analyses were performed on the whole hippocampus as previously described.[37] All antibodies used are detailed in Table S3. Briefly, after sacrifice, hippocampi were microdissected, weighed, immediately frozen in liquid nitrogen, and stored at −20 °C. Tissues were sonicated (VibraCell; Sonics & Materials, USA) in a lysis buffer[37] and centrifuged (4 °C). Supernatants were collected, and the protein concentration was measured using a bicinchoninic Acid (BCA) assay (ThermoFisher Scientific, France). […] The membranes were incubated overnight (4 °C) with the primary antibody, washed, and then incubated for 2 h with the appropriate horseradish peroxidase-conjugated secondary antibody. […] The intensity of the immunoreactive signals was quantified using Image-J software (NIH, Bethesda, […], USA). β-Tubulin (β-Tub) was used as a loading control for all experiments.

[5] = test system: oAβ25–35-induced memory deficits in rats; assay: oAβ25–35-induced memory deficits in T-maze test in rats; type: in vivo, rat
Protocol: For the AD model, adult male Sprague–Dawley rats (Janvier Lab., France) weighing 260–280 g (8 weeks) at the beginning of the experiments were housed 1 week before experiments in a standard animal facility of the University of Montpellier (CECEMA, registration number E34-172-23) (12/12 h light/dark cycle with lights on at 07:00; 21 ± 1 °C, food and water ad libitum). All experiments, including sacrifices, were performed in conscious rats between 09:00 and 12:00, during the diurnal period of the circadian rhythm. Male has been preferred over female because the latter may present a confounding factor of the estrous cycle, a parameter that needs to be systematically controlled. Animal procedures were conducted in strict adherence to the European Union Directive of 2010 (2010/63/EU). The National French Animal Welfare Committee and the local committee at the University of Montpellier approved all protocols (authorization: CEEA-LR-12160). All efforts were made to minimize the number of animals used, potential pain, suffering, and distress.
As previously detailed,[37],[64] to induce the acute model of AD (oAβ25–35 model), rats were divided into three groups. One group had no surgery (Naive group), a second set of animals received an intracerebroventricular (icv) injection of incubated scrambled peptide (negative control groups—10 μg/rat—Sc), and a third set received an icv injection of oAβ25–35 (AD groups—10 μg/rat—Aβ). The animals were anesthetized with an intraperitoneal (ip) injection of a mixture of ketamine and xylazine (80 and 10 mg/kg b.w., respectively). Scrambled peptide and oAβ25–35 were injected directly into the lateral ventricles at a rate of 2 μL/min using a David-Kopf stereotaxic apparatus (coordinates of injection: AP −1 mm, L ±1.5 mm, DV −3.5 mm).
1—A curative approach: This treatment was started 1 week after the induction of amyloid toxicity (icv injection of oAβ25–35) and consisted of 2 ip injections (1.5 mg/kg per injection) per day for 1 week. On day 14, animals were subjected to a behavioral memory test (T-maze) and sacrificed on day 15 by decapitation.
as §1
As previously reported, the T-maze test was used to rapidly assess cognitive ability in rats, especially the short-term memory deficits, when performed in two successive sessions.[37],[38],[64],[65] The T-maze consisted of two short arms (A and B), extending from a longer alley (C) and enclosed with high walls. The test involved two trials, separated by 1 h. During the training session, one short arm (B) was closed. Rats were placed at the end of the long alley, allowed to visit the maze for 10 min, and then returned to their home cage. […] The number of visits and time spent in each arm were measured. The results were expressed as the ratio of the time spent in the initially closed novel arm, over the time spent in the previous arm, and as a ratio of the number of entries into the novel arm over the familiar one. […]

[6] = target: T2, hMAO-B; assay: MAO-B reversibility study; type: biochemical; settings: at concentrations corresponding to IC80, p-tyramine raised to 1 mM
[7] = test system: SCOP-induced cognitive impairment in rats; assay: Scopolamine-induced amnesia in NOR test in rats; type: in vivo, rat; settings: SCOP 1.25 mg/kg ip, PZ-1922 0.3, 1, 3 mg/kg ip, donepezil 1 and 3 mg/kg ip
Protocol: Rats were allowed to acclimate for at least 7 days before the beginning of the experimental procedure. During this week, the animals were handled at least 3 times. Behavioral testing was carried out during the light phase of the light/dark cycle. The experiments were conducted in accordance with the NIH Guide for the Care and Use of Laboratory Animals and were approved by the Ethics Committee for Animal Experiments, Maj Institute of Pharmacology. At least 1 h before the beginning of the experiments, rats were transferred to the experimental room for acclimation. Rats were tested in a dimly lit (25 lx) “open field” apparatus made of dull gray plastic (66 × 56 × 30 cm). After each measurement, the floor was cleaned and dried. […] For the scopolamine-induced memory impairment paradigm, 1 h ITI was chosen. During the first trial (familiarization T1), two identical objects (A1 and A2) were presented in opposite corners, approximately 10 cm from the walls of the open field. In the second trial (recognition, T2), one of the objects was replaced by a novel one (A = familiar and B = novel). […] Exploration time of the objects and the distance traveled were measured using the Any-maze video tracking system. Based on exploration time (E) of two objects during T2, the discrimination index (DI) was calculated according to the formula DI = (EB – EA)/(EA + AB).

[8] = target: the molecule itself; assay: cryo-EM structure; purified receptor in detergent C12E9, pentameric SEC fractions concentrated to 10 mg/mL, incubated 5 min with PZ-1922 or PZ-1939 before freezing
[9] = 1.5 mg/kg ip twice a day for 7 days

T1 sequence (P50406 whole entry): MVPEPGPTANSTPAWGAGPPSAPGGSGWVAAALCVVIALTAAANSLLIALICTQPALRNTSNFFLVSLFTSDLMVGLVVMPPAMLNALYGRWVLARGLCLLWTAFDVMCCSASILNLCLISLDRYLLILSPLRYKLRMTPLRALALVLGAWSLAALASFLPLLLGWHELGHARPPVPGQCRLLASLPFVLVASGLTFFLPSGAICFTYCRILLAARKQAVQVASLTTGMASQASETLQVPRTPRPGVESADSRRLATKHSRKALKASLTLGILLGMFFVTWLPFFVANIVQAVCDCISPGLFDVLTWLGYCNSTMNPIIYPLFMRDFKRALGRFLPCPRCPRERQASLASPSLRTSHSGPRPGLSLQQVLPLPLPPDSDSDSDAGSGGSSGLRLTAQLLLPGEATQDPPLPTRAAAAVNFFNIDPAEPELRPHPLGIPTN

With `NCCc1c[nH]c2ccc(C(N)=O)cc12` [Compound 5-CT, 5-carboxamidotryptamine] the EC50 [1] was 13 nM.

For `Cl.Clc1cccc(CNc2ccnc(N3CCNCC3)c2)c1` [Compound 26], the Ki [2] was 5450 ± 793 nM and the “pIC50 ± SEM (MAO-B)” value [3] was 5.18 ± 0.04.

With `O=S(=O)(c1ccccc1)c1cnc2c(N3CCNCC3)cccc2c1` [Intepirdine, reference compound] the “hippocampal Caspase-3 and Pro-caspase-3 expression, curative strategy” value [4, 9] was “decreased expression of Caspase-3 and Pro-caspase-3”, the “hippocampal PSD-95 and SYN levels, curative treatment” value [4, 9] was “reversed only the SYN level” and the “hippocampal Caspase-3 and Pro-caspase-3 expression, preventive treatment” value ([4]; 3 mg/kg/day osmotic pump 1 week) was “prevented increased expression of Caspase-3 and Pro-caspase-3”. The “hippocampal GFAP increase” value ([4]; curative and preventive approach) was “Neither PZ-1922 nor intepirdine impacted the GFAP increase”, the “effect on oAβ25–35-induced memory deficits in T-maze, curative treatment” value ([5]; 1.5 mg/kg ip twice a day for 7 days, started 1 week after icv oAβ25–35) was “only partially reversed the memory deficits” and the “effect on oAβ25–35-induced memory deficits in T-maze, preventive treatment” value ([5]; 3 mg/kg/day by ip osmotic pump for 1 week, concomitant with icv oAβ25–35) was “did not exhibit the same preventive effect”.

For `C#CCN[C@@H]1CCc2ccccc21` [Rasagiline], the “reversibility of MAO-B inhibition (recovery of MAO-B activity)” value [6] was “irreversible inhibitor”.

`C[C@H](NCc1ccc(OCc2cccc(F)c2)cc1)C(N)=O` [Safinamide] was tested, and the “reversibility of MAO-B inhibition (recovery of MAO-B activity)” value [6] was “reversible MAO-B inhibitors”.

With `COc1cc2c(cc1OC)C(=O)C(CC1CCN(Cc3ccccc3)CC1)C2` (stereo not shown) [donepezil] the “effect on SCOP-induced short-term memory deficits (discrimination index) in NOR test” value [7] was “reduced the memory deficits induced by SCOP”.

B1: mouse 5-HT3A receptor (receptor, UniProt P23979 24-489, looked up)
chain: SRRRATQARDTTQPALLRLSDHLLANYKKGVRPVRDWRKPTTVSIDVIMYAILNVDEKNQVLTTYIWYRQYWTDEFLQWTPEDFDNVTKLSIPTDSIWVPDILINEFVDVGKSPNIPYVYVHHRGEVQNYKPLQLVTACSLDIYNFPFDVQNCSLTFTSWLHTIQDINITLWRSPEEVRSDKSIFINQGEWELLEVFPQFKEFSIDISNSYAEMKFYVIIRRRPLFYAVSLLLPSIFLMVVDIVGFCLPPDSGERVSFKITLLLGYSVFLIIVSDTLPATAIGTPLIGVYFVVCMALLVISLAETIFIVRLVHKQDLQRPVPDWLRHLVLDRIAWILCLGEQPMAHRPPATFQANKTDDCSGSDLLPAMGNHCSHVGGPQDLEKTPRGRGSPLPPPREASLAVRGLLQELSSIRHFLEKRDEMREVARDWLRVGYVLDRLLFRIYLLAVLAYSITLVTLWSIWHYS
notes: 5-hydroxytryptamine (serotonin) receptor 3A, mouse; called full-length in the discussion; the construct is only said to be 'as previously described with some minor modifications'; The intracellular domain is only partly resolved; also called m5-HT3R; m5HT3R
For B1, the “stoichiometry N” value [8] was 5.
